Test results from ChEMBL document CHEMBL1201862, “PubChem BioAssay data set” (2004).
Calls of active or inactive are those of the source. For most assays here, no stated cut-off is given here; in the data, actives have a measured EC50 and inactives only a lower limit.

Key:
[1] = target: Aryl hydrocarbon receptor (Homo sapiens, UniProt P35869); experiment: Luminescence-based cell-based high throughput dose response assay for activators of the Aryl Hydrocarbon Receptor (AHR). [Related pubchem assays: 2796 (Primary screen (AHR activators in singlicate)), 2845 (Confirmation screen (AHR activators in triplicate)), 434939 (Counterscreen (PXR activators in triplicate)), 2804 (Summary (AHR activators))]; assay type: ADME
[2] = target: Potassium voltage-gated channel subfamily KQT member 2 (Rattus norvegicus, UniProt O88943, W236L); experiment: potentiation of rat KCNQ2 current – cell-based, automated electrophysiology, mechanism study for KCNQ2 potentiator project, dose response (AID 2603); assay type: functional
[3] = target: T1, Adenosylmethionine-8-amino-7-oxononanoate aminotransferase (Mycobacterium tuberculosis, UniProt P9WQ81); experiment: Mycobacterium tuberculosis BioA enzyme inhibitor Measured in Biochemical System Using Plate Reader - 2163-02_Inhibitor_Dose_CherryPick_Activity.; assay type: functional, Mycobacterium tuberculosis UT205
T1 sequence (P9WQ81 whole entry): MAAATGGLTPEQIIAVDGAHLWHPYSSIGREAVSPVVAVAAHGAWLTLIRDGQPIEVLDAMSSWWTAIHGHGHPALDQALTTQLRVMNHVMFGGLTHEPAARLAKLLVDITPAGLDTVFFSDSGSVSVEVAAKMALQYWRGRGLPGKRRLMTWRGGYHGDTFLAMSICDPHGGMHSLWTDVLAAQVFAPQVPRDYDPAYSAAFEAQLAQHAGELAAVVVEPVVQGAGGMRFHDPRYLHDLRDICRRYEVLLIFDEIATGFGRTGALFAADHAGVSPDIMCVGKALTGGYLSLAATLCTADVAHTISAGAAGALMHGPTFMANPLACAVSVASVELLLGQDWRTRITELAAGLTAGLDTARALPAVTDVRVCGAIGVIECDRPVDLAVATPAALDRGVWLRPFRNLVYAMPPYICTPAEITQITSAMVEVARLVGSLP

[4] = system: Streptococcus sp. 'group A'; experiment: Streptococcus pyogenes SK(-)GAS viability under kanamycin – luminescence, BacTiterGlo, confirmation, counter-screen for streptokinase expression inhibitor project, dose response (AID 1900); assay type: functional, organism-based
Vero = experiment: mammalian cell viability reduction – secondary assay, cytotoxicity control for West Nile virus antiviral project, dose response (AID 1650); assay type: functional; conditions: Chlorocebus sabaeus
Streptokinase A = target: T2, Streptokinase A (Streptococcus pyogenes serotype M1, UniProt P10520); experiment: viability-normalized secreted streptokinase activity reduction – plasminogen activation absorbance, OD405, dose response (AID 1914); assay type: functional, Streptococcus pyogenes M1 GAS;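 further: secreted streptokinase activity via plasminogen activation per viability signal from cell pellet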
T2 sequence (P10520 whole entry): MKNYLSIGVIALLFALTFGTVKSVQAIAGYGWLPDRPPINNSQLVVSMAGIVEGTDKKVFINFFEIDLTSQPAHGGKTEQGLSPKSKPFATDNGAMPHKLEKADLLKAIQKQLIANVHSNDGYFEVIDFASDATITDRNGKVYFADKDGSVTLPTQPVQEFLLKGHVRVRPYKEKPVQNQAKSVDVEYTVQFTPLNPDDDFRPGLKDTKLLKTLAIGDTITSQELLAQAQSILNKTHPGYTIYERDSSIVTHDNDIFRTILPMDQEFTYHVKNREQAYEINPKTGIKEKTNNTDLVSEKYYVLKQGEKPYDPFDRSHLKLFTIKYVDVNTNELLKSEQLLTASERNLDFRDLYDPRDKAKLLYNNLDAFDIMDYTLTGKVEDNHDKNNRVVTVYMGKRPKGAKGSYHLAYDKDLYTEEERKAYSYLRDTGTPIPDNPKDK

[5] = Trypanosoma cruzi growth suppression in host cells – NIH3T3 host cells, beta-gal luminescence, confirmation (AID 2044); assay type: functional, cell-based;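 further: intracellular parasites grown in NIH/3T3 mouse fibroblasts as host cells; luminescent beta-galactosidase reporter signal from transgenic T. cruzi replicating inside host cells; inhibitors lower the luminescence signal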
[6] = NIH3T3 cell viability loss – ATP luminescence, mouse fibroblasts, counter-screen, dose response (AID 2010); assay type: functional, cell-based;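 further: cells exposed to compound for about 90 hours before reading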
Streptococcus = experiment: GAS UMAA2166 growth inhibition – luminescence, BacTiterGlo, counter-screen for streptokinase expression inhibitor project, dose response (AID 1915); assay type: functional, organism-based;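 further: potency for reduction of bacterial viability or growth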
[7] = Luminescence Cell-Based Dose Response to Identify Activators of 5'UTR Stem-Loop Driven Prion Protein mRNA Translation in H4-C Neuroglioblastoma Cells. [Related pubchem assays: 1829 (Project Summary), 1814 (Primary HTS)]; assay type: functional
[8] = Luminescence Cell-Based Dose Confirmation HTS to Identify Activators of 5'UTR Stem-Loop Driven Alpha-Synuclein mRNA Translation in H4 Neuroglioblastoma Cells. [Related pubchem assays: 1829 (Project Summary), 1814 (Primary HTS)]; assay type: functional
H4 = experiment: Luminescence Cell-Based Dose Response HTS to Identify Activators of 5'UTR Stem-Loop Driven Prion Protein mRNA Translation in H4 Neuroglioblastoma Cells. [Related pubchem assays: 1829 (Project Summary), 1814 (Primary HTS)]; assay type: functional; conditions: Homo sapiens
[9] = Luminescence Cell-Based Dose Response to Identify Activators of Luciferase Translation or Activity in H4-C Neuroglioblastoma Cells. [Related pubchem assays: 1829 (Project Summary), 1814 (Primary HTS)]; assay type: functional
[10] = Luminescence Cell-Based Dose Confirmation to Identify Activators of 5'UTR Stem-Loop Driven Alpha-Synuclein mRNA Translation in H4 Neuroglioblastoma Cells. [Related pubchem assays: 1829 (Project Summary), 1814 (Primary HTS)]; assay type: functional
[11] = target: Sphingosine 1-phosphate receptor 2 (Homo sapiens, UniProt O95136); experiment: Dose Response Cell-Based Assay for Agonists of the Sphingosine 1-Phosphate Receptor 2 (S1P2): Purchased Analogues. [Related pubchem assays: 1192, 373, 439 ]; assay type: functional
[12] = target: Sphingosine 1-phosphate receptor 1 (Homo sapiens, UniProt P21453); experiment: Dose Response Cell-Based Assay for Agonists of the Sphingosine 1-Phosphate Receptor 1 (S1P1): Purchased Analogues. [Related pubchem assays: 1192, 373, 439 ]; assay type: functional
[13] = target: Sphingosine 1-phosphate receptor 3 (Homo sapiens, UniProt Q99500); experiment: Dose Response Cell-Based Assay for Agonists of the Sphingosine 1-Phosphate Receptor 3 (S1P3): Purchased Analogues. [Related pubchem assays: 373, 439 ]; assay type: functional
Sphingosine 1-phosphate receptor 3, sequence (Q99500 whole entry): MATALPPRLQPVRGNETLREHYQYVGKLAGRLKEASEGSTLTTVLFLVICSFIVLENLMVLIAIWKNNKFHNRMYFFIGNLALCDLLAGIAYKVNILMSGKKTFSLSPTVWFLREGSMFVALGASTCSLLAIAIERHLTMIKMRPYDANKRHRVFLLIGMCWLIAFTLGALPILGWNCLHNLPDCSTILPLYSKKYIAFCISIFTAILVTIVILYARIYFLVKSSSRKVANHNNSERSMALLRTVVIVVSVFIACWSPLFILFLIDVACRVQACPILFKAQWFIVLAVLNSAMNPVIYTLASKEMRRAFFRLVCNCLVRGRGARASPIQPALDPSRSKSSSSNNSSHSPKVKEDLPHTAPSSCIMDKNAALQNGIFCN

Aryl hydrocarbon receptor, sequence (P35869 whole entry): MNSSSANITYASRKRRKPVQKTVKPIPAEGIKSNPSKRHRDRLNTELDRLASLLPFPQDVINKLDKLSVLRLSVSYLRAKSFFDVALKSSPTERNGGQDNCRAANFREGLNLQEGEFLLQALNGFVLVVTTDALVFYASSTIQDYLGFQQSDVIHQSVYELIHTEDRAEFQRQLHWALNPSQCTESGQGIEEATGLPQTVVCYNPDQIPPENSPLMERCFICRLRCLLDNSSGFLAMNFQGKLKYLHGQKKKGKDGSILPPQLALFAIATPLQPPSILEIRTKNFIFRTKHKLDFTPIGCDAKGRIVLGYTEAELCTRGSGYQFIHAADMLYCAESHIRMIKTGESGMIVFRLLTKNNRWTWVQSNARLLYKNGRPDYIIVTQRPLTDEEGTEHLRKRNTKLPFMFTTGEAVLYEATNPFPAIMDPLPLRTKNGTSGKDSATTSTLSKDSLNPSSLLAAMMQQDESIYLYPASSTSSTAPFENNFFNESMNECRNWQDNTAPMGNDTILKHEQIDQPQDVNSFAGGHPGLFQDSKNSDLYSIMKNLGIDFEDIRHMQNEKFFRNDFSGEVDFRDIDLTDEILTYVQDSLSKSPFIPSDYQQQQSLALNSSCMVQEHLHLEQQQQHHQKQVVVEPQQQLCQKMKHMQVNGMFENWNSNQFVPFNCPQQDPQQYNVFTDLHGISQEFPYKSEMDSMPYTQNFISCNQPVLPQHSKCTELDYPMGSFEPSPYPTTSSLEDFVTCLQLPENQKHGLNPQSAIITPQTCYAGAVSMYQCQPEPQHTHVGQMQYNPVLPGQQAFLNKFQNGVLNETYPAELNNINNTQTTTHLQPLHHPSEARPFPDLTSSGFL
Potassium voltage-gated channel subfamily KQT member 2, sequence (O88943 whole entry W236L): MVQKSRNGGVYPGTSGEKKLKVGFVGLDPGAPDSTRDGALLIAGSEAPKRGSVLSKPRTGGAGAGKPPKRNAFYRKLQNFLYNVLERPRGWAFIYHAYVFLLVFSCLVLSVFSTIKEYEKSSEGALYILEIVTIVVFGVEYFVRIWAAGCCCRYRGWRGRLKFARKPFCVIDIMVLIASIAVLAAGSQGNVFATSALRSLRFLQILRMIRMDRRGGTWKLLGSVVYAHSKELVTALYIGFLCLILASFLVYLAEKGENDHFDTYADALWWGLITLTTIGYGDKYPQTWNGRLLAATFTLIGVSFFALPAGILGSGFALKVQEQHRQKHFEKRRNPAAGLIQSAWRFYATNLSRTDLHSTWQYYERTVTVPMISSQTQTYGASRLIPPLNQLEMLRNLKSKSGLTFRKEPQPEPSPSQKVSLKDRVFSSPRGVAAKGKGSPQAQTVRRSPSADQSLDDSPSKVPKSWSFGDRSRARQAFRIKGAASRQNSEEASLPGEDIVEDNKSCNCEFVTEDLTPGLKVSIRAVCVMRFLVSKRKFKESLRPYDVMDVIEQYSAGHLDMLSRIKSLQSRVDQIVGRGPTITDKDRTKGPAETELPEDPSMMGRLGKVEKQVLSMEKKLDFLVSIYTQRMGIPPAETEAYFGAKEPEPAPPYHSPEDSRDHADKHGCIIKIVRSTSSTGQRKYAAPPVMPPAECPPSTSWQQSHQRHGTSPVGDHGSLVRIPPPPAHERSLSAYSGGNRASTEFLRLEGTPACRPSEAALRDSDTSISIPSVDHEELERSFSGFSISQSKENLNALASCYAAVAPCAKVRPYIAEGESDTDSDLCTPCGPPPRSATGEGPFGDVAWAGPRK
Sphingosine 1-phosphate receptor 2, sequence (O95136 whole entry): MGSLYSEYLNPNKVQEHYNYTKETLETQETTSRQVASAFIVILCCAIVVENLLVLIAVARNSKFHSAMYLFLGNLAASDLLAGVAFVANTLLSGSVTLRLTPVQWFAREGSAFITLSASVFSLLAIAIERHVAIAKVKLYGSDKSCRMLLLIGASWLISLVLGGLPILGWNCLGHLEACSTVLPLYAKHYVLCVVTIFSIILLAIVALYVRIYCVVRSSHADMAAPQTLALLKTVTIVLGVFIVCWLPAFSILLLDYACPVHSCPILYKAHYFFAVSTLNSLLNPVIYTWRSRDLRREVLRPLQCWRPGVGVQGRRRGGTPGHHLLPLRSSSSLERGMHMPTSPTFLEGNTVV
Sphingosine 1-phosphate receptor 1, sequence (P21453 whole entry): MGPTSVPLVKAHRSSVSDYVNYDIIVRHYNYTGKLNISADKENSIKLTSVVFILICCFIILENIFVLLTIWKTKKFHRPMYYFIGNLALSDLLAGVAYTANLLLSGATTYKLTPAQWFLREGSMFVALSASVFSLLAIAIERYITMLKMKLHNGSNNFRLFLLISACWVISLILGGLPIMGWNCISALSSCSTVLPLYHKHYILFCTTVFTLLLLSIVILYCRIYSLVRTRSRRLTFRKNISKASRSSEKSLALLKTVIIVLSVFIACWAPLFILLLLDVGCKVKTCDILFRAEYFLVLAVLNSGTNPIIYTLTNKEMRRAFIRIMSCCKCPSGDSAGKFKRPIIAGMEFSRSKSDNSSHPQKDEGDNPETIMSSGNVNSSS

Question: For `Cc1ccc(-c2cc(-c3cccs3)[nH]n2)c(O)c1`, which EC50 [1] is on record?
Answer: 1.21 µM (active)

Question: Which EC50 [2] does the source give for `O=C(Nc1cccnc1)c1ccc(Cl)c(Cl)c1` here?
Answer: 26.2 µM (active)

Question: And the AC50 [3]?
Answer: 3.94 µM (active)

Question: For `O=C(Nc1ccc(OC(F)(F)F)cc1)N1CCN(c2ccnc3cc(Cl)ccc23)CC1`, which EC50 [4] is on record?
Answer: 9.61 µM (active)

Question: What about the CC50 (Vero) of the same compound?
Answer: 2.95 µM (active)

Question: And the EC50 (Streptokinase A)?
Answer: 12.7 µM (active)

Question: And the EC50 [5]?
Answer: 2.06 µM (active)

Question: What about the EC50 [6] of the same compound?
Answer: 14.4 µM (active)

Question: What about the EC50 (Streptococcus) of the same compound?
Answer: > 150 µM (not active)

Question: For `CCc1cc2c(=O)n3c(nc2s1)-c1[nH]c2ccc(OC)cc2c1CC3`, which EC50 [7] is on record?
Answer: > 12 µM (not active)

Question: And the EC50 [8]?
Answer: < 0.1 µM (active)

Question: What about the EC50 (H4) of the same compound?
Answer: 3.18 µM (active)

Question: What about the EC50 [9] of the same compound?
Answer: 0.354 µM (active)

Question: And the EC50 [10]?
Answer: 0.498 µM (active)

Question: What does the source list for `O=C(NC1CCCCC1)c1cc(-c2ccccc2)on1`?
Answer: EC50 [11]: > 10 µM (not active); EC50 [12]: 0.897 µM (active); EC50 [13]: > 50 µM (not active)
